# How the values were obtained:
# [1] = tested on: other cardiac ion channels; experiment: Other cardiac ion channels; assay type: cell-based
# [2] = Hepatocyte stability / intrinsic clearance; assay type: in vitro ADME, rat
# [3] = Partitioning into red blood cells; assay type: in vitro ADME
# [4] = Blood-brain barrier crossing
# Permeability = assay type: in vitro ADME
# [5] = IVIVE of clearance in humans; set-up: species or system human
# E. coli [6] = experiment: Killing kinetics assay; assay type: cell-based; details: 0.5X to 16X MIC, susceptible and MDR strains
# A. baumannii [7] = assay type: cell-based
# K. pneumoniae = experiment: Killing kinetics assay; assay type: cell-based; details: 0.5X to 16X MIC, susceptible and MDR strains
# E. cloacae = assay type: cell-based
# [8] = Dog pharmacokinetic study; assay type: in vivo, Beagle dog; details: dogs
# [9] = Rat 14-day GLP toxicology / toxicokinetics; assay type: in vivo
# [10] = Dog 14-day GLP toxicology; assay type: in vivo
# E. coli [11] = tested on: E. coli
# A. baumannii [12] = tested on: A. baumannii
# Serratia marcescens = experiment: MIC; details: IHMA/CARB-X MDR clinical isolates 2019, N=45
# Neisseria gonorrhoeae = experiment: MIC; details: IHMA/CARB-X isolates 1997 to 2021, N=90
# P. mirabilis = experiment: MIC; details: Proteus mirabilis, read-out: median MIC
compound,measurement,setting,value
"Cn1c(=O)ccc2ccc(F)c(CCNC[C@H]3CN(c4cnc5c(n4)NC(=O)CO5)C(=O)O3)c21 [BWC0977, 6-[(5S)−5-[[[2-(7-Fluoro-1,2-dihydro-1-methyl-2-oxo-8-quinolinyl)ethyl]amino]methyl]−2-oxo-3-oxazolidinyl]−2H-pyrazino[2,3-b]−1,4-oxazin-3(4H)-one]",concentration up to which other cardiac ion channels are not inhibited,[1],> 300 µM
same,"clearance predicted from CLint, % of liver blood flow (LBF)",[2],< 30%
same,partitioning into red blood cells,[3],neither partitions into red blood cells
same,crossing of the blood-brain barrier,[4],nor crosses the blood-brain barrier
same,permeability,Permeability,low permeability
same,predicted human plasma CLp,[5],5.5 mL/min/kg
same,predicted % human LBF,[5]; human LBF […],28%
same,in vitro killing kinetics,E. coli [6],significant bactericidal activity
same,in vitro killing kinetics,A. baumannii [7],significant bactericidal activity
same,in vitro killing kinetics,K. pneumoniae,significant bactericidal activity
same,in vitro killing kinetics,E. cloacae,significant bactericidal activity
same,unchanged drug excreted in urine,[8],10%
same,AUC0–24 at NOAEL,[9]; 75 mg/kg/day,52000 ng·h/mL
same,NOAEL at 14 day,[9]; in vivo,75 mg/kg/day
same,Cmax,"[9]; in vivo, 75 mg/kg/day",26000 ng/mL
same,AUC(0-t),"[9]; in vivo, 250 mg/kg/day, AUC0–24 at highest dose level",355000 ng·h/mL
same,microscopic findings,[9]; up to 250 mg/kg/day,no microscopic findings
same,microscopic findings,[10]; dose levels above 40 mg/kg/day,Microscopic changes consistent with hepatobiliary toxicity
same,NOAEL at 14 day,[10]; in vivo,40 mg/kg/day
same,AUC(0-t),"[10]; in vivo, 40 mg/kg/day",90000 ng·h/mL
same,Cmax,"[10]; in vivo, 40 mg/kg/day",25000 ng/mL
same,in vitro resistance frequency,E. coli [11],< 1 × 10^−9
same,resistance frequency,E. coli [11],4 × 10^−9
same,in vitro resistance frequency,P. aeruginosa,< 1 × 10^−9
same,resistance frequency,P. aeruginosa,< 1 × 10^−9
same,in vitro resistance frequency,A. baumannii [12],2.5 × 10^−9
same,resistance frequency,A. baumannii [12],2.5 × 10^−8
same,MIC90,Serratia marcescens,1 µg/mL
same,MIC90,Neisseria gonorrhoeae,≤ 0.016 µg/mL
same,MIC,P. mirabilis,0.12 µg/mL

# From article PMC11410943 (Nature Communications, 2024)
